In paper PMC4230215, “Lipolytic Potential of Aspergillus japonicus LAB01: Production, Partial Purification, and Characterisation of an Extracellular Lipase” (BioMed Research International, 2014) one finds Km data, which are given here for 1 compound.

The structures appear in SMILES notation.

What is called Km is the concentration of substrate that gives half-maximal velocity.

This test has as its system T1, extracellular lipase from A. japonicus LAB01.
T1 construct: about 25 kDa on SDS-PAGE
Description: spectrophotometric p-nitrophenol release at […] nm, Michaelis-Menten hyperbola regression. It is filed as biochemical, Aspergillus japonicus. Conditions: Tris-HCl pH 8.0, 37 °C, Triton X-100 and gum arabic emulsion, 2-propanol; 0-1.4 mM substrate; partially purified enzyme; read-out: apparent KM.

`CCCCCCCCCCCCCCCC(=O)Oc1ccc([N+](=O)[O-])cc1` [p-NPP, p-nitrophenyl palmitate]: the Km worked out at 130 µM.
